Earlier results in US20250143905A1, “TOPICAL TREATMENT FOR ANORECTAL DISORDERS WITH AND WITHOUT SEAT CUSHION” (priority 2019, published 2025).

Tested on: PPAR-γ
Conditions: septic rats; pretreatment with curcumin for 3 days at 0.24 μmol/kg body weight; liver

SMILES: COc1cc(/C=C/C(=O)CC(=O)/C=C/c2ccc(O)c(OC)c2)ccc1O [curcumin]
- increase in PPAR-γ mRNA levels: 45%
- increase in PPAR-γ protein levels: 65%
